Test results from US20260125400A1, “TYK2 DEGRADERS AND USES THEREOF” (Kymera Therapeutics, Inc., priority 2023, published 2026).
Like-named read-outs stand apart in the source and are kept apart here.

Target: T1, TYK2 (Homo sapiens, UniProt P29597)
T1 construct: Degradation of TYK2 in cells was quantitatively measured using Meso Scale Discovery (MSD) technology; endogenous in cells; host or cells: OCI-LY10
Assay: TYK2 MSD degradation in OCI-LY10 cells
Assay type: cell-based
Settings: 4 to 24 hours incubation; for DC50: read-out: TYK2 MSD OCI-LY10 Rel-DC50
Experimental: Example 7. TYK2 MSD Degradation
Degradation of TYK2 in cells was quantitatively measured using Meso Scale Discovery (MSD) technology. OCI-LY10 cells were seeded in 96-well plates with a density of 0.4 million cells per well in 100 μl fresh media. Compounds were then added to the assay plates with a final top concentration of 1 to 10 μM in a 1:3 dilution series with total of 9 doses. The assay plates were then incubated for 4 to 24 hours at 37° C. under […]. The assay plates were then centrifuged for 5 minutes, and the cell pellets were treated with 100 μl/well RIPA lysis buffer (Boston Bioproducts, BP-115D) with protease and phosphatase inhibitors (Roche, 05892791001 and 04906837001). To prepare MSD assay plates (MSD, L15XA), the plates were coated with the capture antibody (Santa Cruz Biotechnology, SC-5271) in PBS, at 40 μl/well. The plates were then incubated overnight at 4° C., washed 3 times with 150 μl/well TBST buffer (Cell Signaling Technology, 9997S) and blocked with 150 μl/well blocking buffer (MSD, R93BA-4). Cell lysates were then added to MSD assay plates and the plates were incubated at room temperature for 1 hour. The plates were then washed 3 times with 150 μl/well TBST buffer and 25 μl/well primary detection antibody (Cell Signaling Technology, #9312). The assay plates were then incubated at room temperature for 1 hour, washed 3 times with 150 μl/well TBST buffer, and 25 μl/well secondary detection antibody, SULFO-TAG anti-rabbit antibody (MSD, R32AB-1) were added. The assay plates were then incubated at room temperature for 1 hour, washed 3 times with 150 μl/well TB ST buffer, and 150 μl/well MSD reading buffer (MSD, R92TC-2) were added. The plates were then analyzed by an MSD reader. The data was analyzed by GraphPad Prism and the dose dependent TYK2 degradation was fit using the four-parameter inhibitor vs. response nonlinear regression.
The letter codes for TYK2 DC50 include: A (<1 nM); B (i to <10 nM); C (10 to 100 nM); D (>100 nM); and E (not tested). The letter codes for TYK2 Dmax % include: A (>90%); B (90 to >75%); C (75 to 50%); D (<50%); and E (not tested).

[1] = TYK2 degradation in OCI-LY10 cells

T1 sequence (P29597 whole entry): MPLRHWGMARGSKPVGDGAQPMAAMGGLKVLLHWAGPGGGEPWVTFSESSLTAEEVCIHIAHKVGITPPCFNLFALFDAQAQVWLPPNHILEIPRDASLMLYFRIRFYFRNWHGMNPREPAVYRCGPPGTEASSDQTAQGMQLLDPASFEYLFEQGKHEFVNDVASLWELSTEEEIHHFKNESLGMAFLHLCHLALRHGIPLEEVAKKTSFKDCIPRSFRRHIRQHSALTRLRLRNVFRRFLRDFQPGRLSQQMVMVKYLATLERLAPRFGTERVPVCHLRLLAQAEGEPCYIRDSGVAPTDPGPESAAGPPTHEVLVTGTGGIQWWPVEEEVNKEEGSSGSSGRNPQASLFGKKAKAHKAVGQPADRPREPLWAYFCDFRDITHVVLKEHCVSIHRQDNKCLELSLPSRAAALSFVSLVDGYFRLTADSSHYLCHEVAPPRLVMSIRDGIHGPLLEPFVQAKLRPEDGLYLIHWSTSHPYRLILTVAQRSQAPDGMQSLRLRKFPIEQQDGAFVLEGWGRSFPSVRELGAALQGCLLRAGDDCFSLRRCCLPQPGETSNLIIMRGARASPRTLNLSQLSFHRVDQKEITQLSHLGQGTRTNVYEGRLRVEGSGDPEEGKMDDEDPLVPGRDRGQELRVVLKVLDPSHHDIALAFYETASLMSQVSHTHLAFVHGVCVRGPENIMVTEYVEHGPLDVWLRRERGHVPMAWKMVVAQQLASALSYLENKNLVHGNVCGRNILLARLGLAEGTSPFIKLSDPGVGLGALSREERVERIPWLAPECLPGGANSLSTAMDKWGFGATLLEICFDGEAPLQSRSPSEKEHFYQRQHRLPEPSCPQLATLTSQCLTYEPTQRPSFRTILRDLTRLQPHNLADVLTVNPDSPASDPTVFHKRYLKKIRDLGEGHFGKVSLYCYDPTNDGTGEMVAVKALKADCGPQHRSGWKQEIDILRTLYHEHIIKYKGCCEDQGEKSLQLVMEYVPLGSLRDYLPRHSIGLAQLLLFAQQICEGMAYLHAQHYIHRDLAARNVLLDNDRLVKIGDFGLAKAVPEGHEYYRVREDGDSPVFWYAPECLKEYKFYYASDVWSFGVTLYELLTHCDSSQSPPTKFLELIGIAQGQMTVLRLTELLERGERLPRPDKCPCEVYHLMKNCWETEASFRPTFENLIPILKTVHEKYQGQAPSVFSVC

| SMILES | TYK2 MSD OCI-LY10 Dmax % (OCI-LY10 cells) | DC50 (OCI-LY10 cells) | TYK2 MSD OCI-LY10 Dmax % [1] | DC50 [1] |
| --- | --- | --- | --- | --- |
| CNc1cc(N2CCc3c(-c4ccc(CN5CCN(CCC6CCN(c7ccc(Cl)c(C8CCC(=O)NC8=O)c7)CC6)CC5)cn4)cccc32)nn2c(C(=O)NC3CC3F)cnc12 (mixture of isomers) [I-438] | C (C (75 to 50%)) | < 10 nM | – | – |
| CNc1cc(N2CCc3c(-c4ccc(N5CCN(CC6CCN(c7ccc(Cl)c(C8CCC(=O)NC8=O)c7)CC6)CC5)cn4)cccc32)nn2c(C(=O)NC3CC3F)cnc12 (mixture of isomers) [I-442] | C (C (75 to 50%)) | < 10 nM | – | – |
| CNc1cc(N2CCc3c(-c4ccc(N5CC6(CCN(Cc7ccc(C8CCC(=O)NC8=O)c(Cl)c7)CC6)C5)cn4)cccc32)nn2c(C(=O)NC3CC3F)cnc12 (mixture of isomers) [I-445] | B (B (90 to >75%)) | < 10 nM | – | – |
| CNc1cc(N2CCc3c(-c4ccc(N5CCC6(CC5)CN(C(=O)c5ccc(C7CCC(=O)NC7=O)c(Cl)c5)C6)cn4)cccc32)nn2c(C(=O)NC3CC3F)cnc12 (mixture of isomers) [I-447] | C (C (75 to 50%)) | < 10 nM | – | – |
| CNc1cc(N2CCc3c(-c4ccc(CN5CCC(N6CCN(c7ccc8c(c7)n(C)c(=O)n8C7CCC(=O)NC7=O)CC6)CC5)cn4)cccc32)nn2c(C(=O)N[C@@H]3C[C@@H]3F)cnc12 (some centres unmarked) [I-1] | – | – | B (B (90 to >75%)) | < 1 nM |
| CNc1cc(N2CCc3c(-c4cc(CN5CCC(c6ccc7c(c6)n(C)c(=O)n7C6CCC(=O)NC6=O)C(F)(F)C5)ccn4)cccc32)nn2c(C(=O)NC3CC3)cnc12 (centres unmarked) [I-4] | – | – | D (D (<50%)) | > 100 nM |
| CNc1cc(N2CCc3c(N4CCC(CN5CCC(N6CCN(c7ccc8c(c7)n(C)c(=O)n8C7CCC(=O)NC7=O)CC6)C(F)(F)C5)CC4)cccc32)nn2c(C(=O)NC3CC3)cnc12 (centres unmarked) [I-5] | – | – | C (C (75 to 50%)) | < 10 nM |
| CNc1cc(N2CCc3c(N4CC(CN5CCC(N6CCN(c7ccc8c(c7)n(C)c(=O)n8C7CCC(=O)NC7=O)CC6)C(F)(F)C5)C4)cccc32)nn2c(C(=O)NC3CC3)cnc12 (centres unmarked) [I-12] | – | – | C (C (75 to 50%)) | < 1 nM |
| CNc1cc(N2CCc3c(CN4CCC(N5CCN(c6ccc7c(c6)n(C)c(=O)n7C6CCC(=O)NC6=O)CC5)C(F)(F)C4)cccc32)nn2c(C(=O)NC3CC3)cnc12 (centres unmarked) [I-15] | – | – | C (C (75 to 50%)) | < 1 nM |
| CNc1cc(N2CCc3c(CN4CCC(N5CCC6(CCN(c7ccc8c(c7)n(C)c(=O)n8C7CCC(=O)NC7=O)CC6)CC5)C(F)(F)C4)cccc32)nn2c(C(=O)NC3CC3)cnc12 (centres unmarked) [I-19] | – | – | B (B (90 to >75%)) | < 10 nM |
| CNc1cc(N2CCc3c(-c4cc(CN5CCC6(CC5)CN(c5ccc7c(c5)n(C)c(=O)n7C5CCC(=O)NC5=O)C6)ccn4)cccc32)nn2c(C(=O)NC3CC3)cnc12 (centres unmarked) [I-21] | – | – | D (D (<50%)) | < 10 nM |
| CNc1cc(N2CC3(CCN(C4CCN(c5cccc6c5n(C)c(=O)n6C5CCC(=O)NC5=O)CC4)CC3)c3ccccc32)nn2c(C(=O)NC3CC3)cnc12 (centres unmarked) [I-23] | – | – | D (D (<50%)) | > 100 nM |
| CNc1cc(N2CC3(CCN(CC4CCN(c5ccc6c(c5)n(C)c(=O)n6C5CCC(=O)NC5=O)CC4)CC3)c3ccccc32)nn2c(C(=O)NC3CC3)cnc12 (centres unmarked) [I-24] | – | – | D (D (<50%)) | > 100 nM |
| CNc1cc(N2CC3(CCN(CC4CCN(c5cccc6c5n(C)c(=O)n6C5CCC(=O)NC5=O)CC4)CC3)c3ccccc32)nn2c(C(=O)NC3CC3)cnc12 (centres unmarked) [I-25] | – | – | D (D (<50%)) | > 100 nM |
| CNc1cc(N2CCc3c(-c4ccc(CN5CC6(CCN(C(=O)c7ccc(Cl)c(N8CCC(=O)NC8=O)c7)CC6(F)F)C5)cn4)cccc32)nn2c(C(=O)NC3CC3)cnc12 [I-29] | – | – | B (B (90 to >75%)) | < 10 nM |
| CNc1cc(N2CCc3c(N4CCN(C5CCC6(CC5)CCN(c5ccc7c(c5)n(C)c(=O)n7C5CCC(=O)NC5=O)CC6)CC4)cccc32)nn2c(C(=O)NC3CC3)cnc12 (centres unmarked) [I-31] | – | – | D (D (<50%)) | < 10 nM |
| CNc1cc(N2CCc3c(N4CCN(CC5CC6(CCN(C(=O)c7ccc(Cl)c(N8CCC(=O)NC8=O)c7)CC6)C5)CC4)cccc32)nn2c(C(=O)NC3CC3)cnc12 [I-32] | – | – | C (C (75 to 50%)) | < 10 nM |

| SMILES | TYK2 MSD OCI-LY10 Dmax % (OCI-LY10 cells) | DC50 (OCI-LY10 cells) | TYK2 MSD OCI-LY10 Dmax % [1] | DC50 [1] |
| --- | --- | --- | --- | --- |
| CNc1cc(N2CC3(CCN(Cc4ccc5c(c4)n(C)c(=O)n5C4CCC(=O)NC4=O)CC3)c3ccccc32)nn2c(C(=O)NC3CC3)cnc12 (centres unmarked) [I-34] | – | – | D (D (<50%)) | > 100 nM |
| CNc1cc(N2CCc3c(N4CCN(CC5CCC6(CC5)CCN(c5ccc7c(c5)n(C)c(=O)n7C5CCC(=O)NC5=O)CC6)CC4)cccc32)nn2c(C(=O)NC3CC3)cnc12 (centres unmarked) [I-39] | – | – | D (D (<50%)) | < 10 nM |
| CNc1cc(N2CCc3c(N4CCN(CCC5CCN(c6ccc7c(c6)n(C)c(=O)n7C6CCC(=O)NC6=O)CC5)CC4)cccc32)nn2c(C(=O)NC3CC3)cnc12 (centres unmarked) [I-40] | – | – | D (D (<50%)) | > 100 nM |
| CNc1cc(N2CC3(CCN(CCc4cccc5c4n(C)c(=O)n5C4CCC(=O)NC4=O)CC3)c3ccccc32)nn2c(C(=O)NC3CC3)cnc12 (centres unmarked) [I-41] | – | – | D (D (<50%)) | > 100 nM |
| CNc1cc(N2CC3(CCN(c4ccc5c(c4)n(C)c(=O)n5C4CCC(=O)NC4=O)CC3)c3ccccc32)nn2c(C(=O)NC3CC3)cnc12 (centres unmarked) [I-42] | – | – | D (D (<50%)) | > 100 nM |
| CNc1cc(N2CCc3c(C4CCCN(CC5CN(c6ccc7c(c6)n(C)c(=O)n7C6CCC(=O)NC6=O)C5)C4)cccc32)nn2c(C(=O)NC3CC3)cnc12 (centres unmarked) [I-45] | – | – | C (C (75 to 50%)) | < 1 nM |
| CNc1cc(N2CCc3c(-c4ccc(CN5CCC(N6CCC7(CC6)CN(c6ccc8c(c6)n(C)c(=O)n8C6CCC(=O)NC6=O)C7)C(F)(F)C5)cn4)cccc32)nn2c(C(=O)NC3CC3)cnc12 (centres unmarked) [I-47] | – | – | B (B (90 to >75%)) | < 10 nM |
| CNc1cc(N2CC3(CCN(c4cccc5c4n(C)c(=O)n5C4CCC(=O)NC4=O)CC3)c3ccccc32)nn2c(C(=O)NC3CC3)cnc12 (centres unmarked) [I-51] | – | – | D (D (<50%)) | > 100 nM |
| CNc1cc(N2CC3(CCN(Cc4cccc5c4n(C)c(=O)n5C4CCC(=O)NC4=O)CC3)c3ccccc32)nn2c(C(=O)NC3CC3)cnc12 (centres unmarked) [I-52] | – | – | D (D (<50%)) | > 100 nM |
| CNc1cc(N2CC3(CCN(CCc4ccc5c(c4)n(C)c(=O)n5C4CCC(=O)NC4=O)CC3)c3ccccc32)nn2c(C(=O)NC3CC3)cnc12 (centres unmarked) [I-53] | – | – | D (D (<50%)) | > 100 nM |
| CNc1cc(N2CCc3c(-c4ccc(CN5CCC6(CC5)CCN(c5cccc7c5n(C)c(=O)n7C5CCC(=O)NC5=O)CC6)cn4)cccc32)nn2c(C(=O)NC3CC3)cnc12 (centres unmarked) [I-54] | – | – | C (C (75 to 50%)) | < 10 nM |
| CNc1cc(N2CCc3c(N4CCN(CC5CCC6(CC5)CCN(C(=O)c5ccc(Cl)c(N7CCC(=O)NC7=O)c5)CC6)CC4)cccc32)nn2c(C(=O)NC3CC3)cnc12 [I-55] | – | – | D (D (<50%)) | > 100 nM |
| CNc1cc(N2CCc3c(C4CCN(CC5CCC6(CC5)CCN(C(=O)c5ccc(Cl)c(N7CCC(=O)NC7=O)c5)CC6)CC4)cccc32)nn2c(C(=O)NC3CC3)cnc12 [I-56] | – | – | C (C (75 to 50%)) | < 10 nM |
| CNc1cc(N2CCc3c(-c4ccc(CN5CCC6(CCN(C(=O)c7ccc(Cl)c(N8CCC(=O)NC8=O)c7)CC6)C(F)(F)C5)cn4)cccc32)nn2c(C(=O)NC3CC3)cnc12 [I-57] | – | – | B (B (90 to >75%)) | < 10 nM |
| CNc1cc(N2CCc3c(CN4CCC5(CC4)CCN(C(=O)c4ccc(Cl)c(N6CCC(=O)NC6=O)c4)CC5)cccc32)nn2c(C(=O)NC3CC3)cnc12 [I-58] | – | – | D (D (<50%)) | > 100 nM |
| CNc1cc(N2CCc3c(C4CCCN(CC5CC6(C5)CN(c5ccc7c(c5)n(C)c(=O)n7C5CCC(=O)NC5=O)C6)C4)cccc32)nn2c(C(=O)NC3CC3)cnc12 (centres unmarked) [I-59] | – | – | D (D (<50%)) | < 1 nM |
| CNc1cc(N2CCc3c(C4CCN(CC5CC6(CCN(C(=O)c7ccc(Cl)c(N8CCC(=O)NC8=O)c7)CC6)C5)CC4)cccc32)nn2c(C(=O)NC3CC3)cnc12 [I-60] | – | – | C (C (75 to 50%)) | < 10 nM |
